Reference: patent publication US20250108064A1, “PHOSPHATE PRODRUGS OF CANNABINOIDS” (priority 2021, published 2025)
Converted amounts (≈) assume the structure as drawn.

Tests used:
[1] = physchem; assay type: physicochemical; details: aqueous buffer, kinetic from dmso stock; nephelometry, PBS pH 7.0-7.3, 1% DMSO, 25° C., 90 min
Protocol: General Experimental: Nephelometry experiments were performed using untreated Corning® Costar® 96-well black polystyrene plates with clear flat bottoms. Sample stock solutions and serial dilutions were prepared with DriSolv® DMSO purchased from MilliporeSigma. All 100-fold dilutions and replicate experiments were prepared using Gibco® Dulbecco's phosphate-buffered saline (DPBS, no calcium, no magnesium) with a pH range of 7.0-7.3 as aqueous media. […] Nephelometry data was obtained using a NEPHELOstar® microplate reader and processed with MARS data analysis software from BMG LabTech.
Procedure for Nephelometry Experiments: Tested compounds were dissolved in 100% DMSO to make stock solutions of specified concentrations, ranging from 10 mM minimum up to 50 mM maximum. The sample then underwent serial dilution in a 96-well plate (Corning® Costar®). Well A1 of the plate contained 100% DMSO. […] Using a 12 channel multichannel pipette, 2.5 μL of sample from row A was transferred to each well in row B through row H of the plate. Next, 30 μL of PBS (pH=7.0-7.3) was added to row B through row H, providing each well with 32.5 μL. The plate was then incubated for 30 sec with shaking. Finally, 217.5 μL of PBS buffer was added to row B through row H, and the entire plate was incubated with shaking at 25° C. for 90 min. Note: The final volume of DMSO in actual experiments with PBS buffer was 1% throughout the plate. After 90 min, the 96-well plate was analyzed with a NEPHELOstar® instrument and the data was processed with MARS data analysis software.

[2] = Simulated Gastric Fluid stability assay; assay type: in vitro ADME; details: simulated gastric fluid (SGF) with pepsin, pH 1.2; SGF pH about 1.2 with pepsin, 37° C.; read-out: T½ in SGF (converted)
Protocol: General Experimental: Simulated Gastric Fluid (SGF) is a pH 1.2 HCl solution with purified pepsin (800-2500 units of activity) (Test Solutions, The United States Pharmacopoeia (USP), 2008). SGF was prepared according to a procedure described in Test Solution—USP and other published articles (Bioorganic Chemistry, 49 (2013), 40-48). Sodium chloride 0.20 g and purified pepsin 0.32 g (Sigma), derived from porcine stomach mucosa with an activity of 800 to 2500 units per mg of protein, were dissolved in 0.70 mL hydrochloric acid and sufficient water to make 100 mL. […] The SGF solution prepared was used for in vitro studies to evaluate the prodrug stability.
At specified time intervals, aliquots (100 μL) were withdrawn and added to pre-cooled 100% acetonitrile (200 μL spiked with ISTD) and mixed well by vortex mixing for 2 min. The mixture was centrifuged at 13000 rpm for 15 min at 4° C.

[3] = Liver microsome stability assay (HLM); assay type: in vitro ADME; details: human, microsomes, pH 7.4; 3 μM test compound, NADPH; read-out: T½ in HLM
Protocol: (§1) General Experimental: Human and mouse liver microsomes were purchased from Xenotech at 20 mg/mL. NADPH (Sigma-Aldrich) 10 mM stocks were prepared in deionized water.
(§2) Procedure for Liver Microsome Stability Assay: Test compounds and positive controls were dissolved in 100% DMSO to make 10 mM stock solutions. Verapamil (Sigma-Aldrich) and diphenhydramine (Sigma-Aldrich) were used as positive controls for both human liver microsomes (HLM) and mouse liver microsomes (MLM). The 10 mM stock solutions of test and control compounds were further diluted in potassium phosphate buffer (100 mM, pH 7.4) to 500 μM to ensure that the organic solvent content was <0.2%. The liver microsome (HLM or MLM) assay was prepared in a 1.5 mL Eppendorf tube with a final volume of 1100 μL for duplicate runs. Each reaction contained phosphate buffer (928.4 μL), liver microsomes (55 μL), and test compound (6.6 μL of 500 μM), resulting in a final concentration of 3 μM for the test compound. The reaction was initiated with 110 μL of 10 mM NADPH. Aliquots (100 μL) were removed in duplicate at 0, 5, 10, 15, and 30 min and quenched in […] of 100% cold methanol which contained internal standard (ISTD: d5-7-ethoxy coumarin 2 μM). The aliquots were centrifuged at 12,000 g for 5 min, and the supernatant was transferred and placed in an LC-MS vial. Each time point was assessed by LC-MS/MS, and the area under the m/z curve (AUC), based on the MRM transition, was integrated w.r.t the ISTD. Positive controls were conducted at a final volume of 550 μL to enable a single run for each time point. Negative controls in the absence of NADPH were performed with the test and control compounds, respectively, at a final volume of 150 μL and measured at the most prolonged time point. Control compounds were processed and analyzed like test compounds. Each time point was run in triplicates on LC-MS/MS followed by in-between blank washes to avoid the carryover and to equilibrate the column. Half-life (T1/2) was calculated using the data obtained from LC-MS/MS and by plotting ln (% remaining of the parent prodrug) versus time and performing linear regression to determine slope. Slope=−k and T1/2=0.693/k for first-order kinetics.

[4] = Liver microsome stability assay (MLM); assay type: in vitro ADME; details: mouse, mouse liver microsomes, pH 7.4; 3 μM test compound, NADPH; read-out: T 1/2 in MLM
Protocol: as §1
as §2, with “Each time point was run in triplicates on LC-MS/MS followed by in-between blank washes to avoid the carryover and to equilibrate the column.” left out, “Slope=−k and T1/2=0.693/k for first-order kinetics.” left out

[5] = Plasma stability assay (human plasma); assay type: in vitro ADME; details: 37° C., unit min, read-out: T½ in human plasma (converted)
Protocol: General Experimental: Procaine and Procainamide were purchased from Sigma-Aldrich. Human plasma was obtained from BioIVT (Cat. No. […]2N) and 1X Dulbecco's PBS (pH 7.4, Gibco) was obtained from Thermos Fischer. Stock solutions were prepared in 100% DMSO, and suitable dilutions of target analytes were prepared in methanol for method development.
Procedure for Plasma Stability Assay: Test compounds were dissolved in DMSO to make a stock solution of 10 mM and then diluted to 500 μM in buffer (or 70% MeOH). Human plasma was thawed at ambient temperature and is aliquoted ([…]) to a 1.5 mL Eppendorf tube in duplicates (A and B) for each compound. Plasma was incubated at 37° C. for 10 minutes in an incubator shaker at 150 rpm; the reaction was initiated by the addition of the test compound (6.0 μL) and vortex mixing. The total reaction volume was 1000 μL where the final organic solvent concentrations were 0.6% MeOH and 0.03% DMSO. The spiked plasma samples were incubated at 37° C. for 4 hrs. The reactions were terminated at time points 0, 15, 30, 60, 120, 180, and 240 min by taking a 100 μL aliquot from the test incubation mixture and immediately quenching it in ice-cold acetonitrile containing internal standard (150 μL with 2 μM ISTD), followed by a quick vortex mixing. In addition, matrix blank was prepared by adding acetonitrile solutions containing ISTD to plasma samples without any of the analytes or control compounds. Also, an additional tube was made to measure compound degradation in PBS buffer. The samples were centrifuged at 15000 rpm for 25 min at 4° C. The supernatant was transferred to an LC-MS vial for analysis by LC/MS-MS. Each time point was run in duplicates followed by in-between blank washes to avoid the carryover and to equilibrate the column. Half-life (T1/2) was calculated using the data obtained from LC-MS/MS and by plotting ln (% remaining of the parent prodrug) versus time and performing linear regression to determine slope. Slope=−k and T1/2=0.693/k for first-order kinetics.
These positive controls were run in parallel to test the systems for competency.

[6] = Plasma stability (mouse plasma); assay type: in vitro ADME; details: read-out: T½ in mouse plasma (converted)
[7] = daily oral doses of 10 mg/kg chronically administered; cited from earlier work

## C=C(C)[C@@H]1CCC(C)=C[C@H]1c1c(O)cc(CCCCC)cc1OC(=O)COP(=O)(O)O.N.N [7a, 2-(((1′R,2′R)-6-hydroxy-5′-methyl-4-pentyl-2′-(prop-1-en-2-yl)-1′,2′,3′,4′-tetrahydro-[1,1′-biphenyl]-2-yl)oxy)-2-oxoethyl phosphate di-ammonium salt]
[1]
  solubility: > 500 µM
[2]
  half-life at 2 mM: 315 min
[3]
  half-life: 59 min
[4]
  half-life at 3 μM: 6.1 min
[5]
  half-life: 20 min
[6]; unit min
  half-life: 4.5 min

## C=C(C)[C@@H]1CCC(C)=C[C@H]1c1c(O)cc(CCCCC)cc1O [CBD, Cannabidiol, reference compound]
[1]
  solubility: 16.9 ± 0.55 µM (≈ 5.32 µg/mL)
[2]
  half-life at 2 mM: > 180 min
[3]
  half-life: 5.8 min
[4]
  half-life at 3 μM: 2.9 min
[6]
  half-life: 576 min
[7]
  mean plasma concentration: 5.9 to 11.2 ng/mL
